# Source: paper PMC9841523 (Journal of Medicinal Chemistry, 2022)
# Key:
# [1] = biological target: T1, δ (DOP) (h) (agonist radioligand) (Homo sapiens, UniProt P41143); experiment: Eurofins Safety Screen 44; format: binding; details: read-out: % Inhibition of Control Values
# T1 construct: purchased ActivX Biosciences (KiNativ)
# [2] = biological target: T2, PDE4D2 (h) (Homo sapiens, UniProt Q08499); experiment: Eurofins Safety Screen 44; format: biochemical; details: read-out: % Inhibition of Control Values
# T2 construct: Eurofins (ran the panel)
# [3] = biological target: T3, CB2(h) (agonist radioligand) (Homo sapiens, UniProt P34972); experiment: Eurofins Safety Screen 44; format: binding; details: read-out: % Inhibition of Control Values
# T3 construct: purchased ActivX Biosciences (KiNativ)
# [4] = biological target: T4, D1(h) (antagonist radioligand) (Homo sapiens, UniProt P21728); experiment: Eurofins Safety Screen 44; format: binding; details: read-out: % Inhibition of Control Values
# T4 construct: purchased ActivX Biosciences (KiNativ)
# [5] = biological target: T5, 5-HT1A(h) (agonist radioligand) (Homo sapiens, UniProt P08908); experiment: Eurofins Safety Screen 44; format: binding; details: read-out: % Inhibition of Control Values
# T5 construct: purchased ActivX Biosciences (KiNativ)
# [6] = biological target: T6, CB1(h) (agonist radioligand) (Homo sapiens, UniProt P21554); experiment: Eurofins Safety Screen 44; format: binding; details: read-out: % Inhibition of Control Values
# T6 construct: purchased ActivX Biosciences (KiNativ)
# [7] = biological target: T7, M1(h) (antagonist radioligand) (Homo sapiens, UniProt P11229); experiment: Eurofins Safety Screen 44; format: binding; details: read-out: % Inhibition of Control Values
# T7 construct: purchased ActivX Biosciences (KiNativ)
# [8] = biological target: T8, acetylcholinesterase (h) (Homo sapiens, UniProt P22303); experiment: Eurofins Safety Screen 44; format: biochemical; details: read-out: % Inhibition of Control Values
# T8 construct: Eurofins (ran the panel)
# [9] = tested on: 4EBP1 T37/T46 phosphorylation (mTORC1); experiment: AlphaLISA/MSD analysis of 4EBP1 phosphorylation in MDA-MB-468 cells; format: cell-based; details: Homo sapiens, MDA-MB-468, read-out: p4EBP1 IC50
# Method: Cell culture and reagents. Cells were obtained from ATCC, grown in appropriate medium supplemented with 10% fetal bovine serum and 1% penicillin/streptomycin and maintained at 37 °C in a humidified incubator at 5% CO 2.
# AlphaLISA and MesoScale Discovery (MSD) analysis of 4EBP1, S6K and AKT phosphorylation. mTOR substrate phosphorylation in MDA-MB-468 cells was assayed using AlphaLISA SureFire Ultra kits for p4EBP1 Thr37/46, p-P70S6K Thr389 and p-AKT1/2/3 Ser473 (PerkinElmer), and MSD Multi-Array Assay Systems for Phospho-4EBP1 (Thr37/46) and Phospho-AKT (Ser473) (MSD). Cells were seeded at 25,000 cells per well and exposed the next day to serial three-fold dilutions of compounds in complete medium with 0.1% dimethylsulfoxide (DMSO). After indicated incubation times, cells were lysed and AlphaLISA or MSD performed according to the manufacturers’ protocols. Samples were read using an EnVision Multilabel Plate Reader (PerkinElmer) using standard AlphaLISA settings or using an MSD plate reader. Data were plotted as a function of logM [compound] with a sigmoidal concentration response (variable slope) model fitted to the data to estimate the inhibitor half-maximum effective concentration (EC 50) in Prism 7 (GraphPad). Alternatively, results were analyzed as percentage of control in which 0% was set as signal from 1 μM Torin1 and 100% was set as the mean of DMSO wells on each plate, and inhibitor EC 50 was estimated as described
# [10] = biological target: T9, norepinephrine transporter(h) (antagonist radioligand) (Homo sapiens, UniProt P23975); experiment: Eurofins Safety Screen 44; format: binding; details: read-out: % Inhibition of Control Values
# T9 construct: purchased ActivX Biosciences (KiNativ)
# [11] = biological target: T10, M2 (h) (antagonist radioligand) (Homo sapiens, UniProt P08172); experiment: Eurofins Safety Screen 44; format: binding; details: read-out: % Inhibition of Control Values
# T10 construct: purchased ActivX Biosciences (KiNativ)
# [12] = tested on: NMDA (antagonist radioligand); experiment: Eurofins Safety Screen 44; format: binding; details: 10 µM
# [13] = tested on: BZD (central) (agonist radioligand); experiment: Eurofins Safety Screen 44; format: binding; details: 10 µM
# [14] = biological target: T11, N neuronal α4β2 (h) (agonist radioligand) (Homo sapiens, UniProt P17787+P43681); experiment: Eurofins Safety Screen 44; format: binding; details: read-out: % Inhibition of Control Values
# T11 construct: purchased ActivX Biosciences (KiNativ)
# [15] = biological target: T12, CCK1 (CCKA) (h) (agonist radioligand) (Homo sapiens, UniProt P32238); experiment: Eurofins Safety Screen 44; format: binding; details: read-out: % Inhibition of Control Values
# T12 construct: purchased ActivX Biosciences (KiNativ)
# [16] = biological target: T13, μ (MOP) (h) (agonist radioligand) (Homo sapiens, UniProt P35372); experiment: Eurofins Safety Screen 44; format: binding; details: read-out: % Inhibition of Control Values
# T13 construct: purchased ActivX Biosciences (KiNativ)
# [17] = biological target: T14, dopamine transporter(h) (antagonist radioligand) (Homo sapiens, UniProt Q01959); experiment: Eurofins Safety Screen 44; format: binding; details: read-out: % Inhibition of Control Values
# T14 construct: Eurofins (ran the panel)
# [18] = biological target: T15, 5-HT1B (h) (antagonist radioligand) (Homo sapiens, UniProt P28222); experiment: Eurofins Safety Screen 44; format: binding; details: read-out: % Inhibition of Control Values
# T15 construct: purchased ActivX Biosciences (KiNativ)
# [19] = biological target: T16, PDE3A (h) (Homo sapiens, UniProt Q14432); experiment: Eurofins Safety Screen 44; format: biochemical; details: read-out: % Inhibition of Control Values
# T16 construct: Eurofins (ran the panel)
# [20] = biological target: T17, ETA(h) (agonist radioligand) (Homo sapiens, UniProt P25101); experiment: Eurofins Safety Screen 44; format: binding; details: read-out: % Inhibition of Control Values
# T17 construct: purchased ActivX Biosciences (KiNativ)
# [21] = biological target: T18, COX2(h) (Homo sapiens, UniProt P35354); experiment: Eurofins Safety Screen 44; format: biochemical; details: read-out: % Inhibition of Control Values
# T18 construct: Eurofins (ran the panel)
# [22] = tested on: Ca2+ channel (L, dihydropyridine site) (antagonist radioligand); experiment: Eurofins Safety Screen 44; format: binding; details: 10 µM
# [23] = tested on: NCI-H2122 NSCLC CDX; experiment: NCI-H2122 NSCLC CDX model; format: in vivo; details: RMC-6272 10 mg/kg ip once weekly; sotorasib 100 mg/kg po qd; single agents or combination
# Method: groups when mean tumor volume reached 400–600 mm 3. Tumor and plasma samples were collected for PK and PD analysis at indicated time points after a single dose of indicated […]
# doses. Everolimus was formulated in v/v/v/, 30/5/65 Propylene glycol/Tween 80/H 2O.
# NCI-H2122 xenograft studies. Female Balb/c nude mice (Beijing V.R Biotechnology Co. […]
# per inoculation. When mean tumor volume reached between 150–200 mm 3, mice were […]
# Transcutol/Solutol HS 15/H 2O. Sotorasib (AMG 510) was administered by oral gavage at 100 mg/kg daily and formulated in 2% (w/v) HPMC E-50, 0.5% Tween 80 in 50 mM sodium citrate […]
# In vivo pharmacodynamics. Snap frozen tumors collected were homogenized with MSD complete lysis buffer (as prepared according to Meso Scale Discovery kit protocol) using PreCellys Bead Shaker (Bertin Instruments) according to manufacturer's protocol. Phospho-4E-BP1(Thr37/46) Whole Cell Lysate Kit (Meso Scale Discovery) was used to quantify phosphorylation of 4E-BP1 in the tumors according to manufacturer's protocol.
# Expression and purification of FKBP12, FRB domain, and RHEB-GTPγS. DNA pET28
# [24] = tested on: Wnk1, Wnk2, Wnk3; experiment: KiNativ kinase panel; format: cell-based, human; details: 1 μM; MCF-7 Cells; Lys2; DLKCDNIFITGPTGSVK
# [25] = tested on: RSK1 domain1, RSK2 domain1, RSK3 domain1; experiment: KiNativ kinase panel; format: cell-based, human; details: 1 μM; MCF-7 Cells; Lys2; DLKPENILLDEEGHIK
# T3 sequence (P34972 whole entry): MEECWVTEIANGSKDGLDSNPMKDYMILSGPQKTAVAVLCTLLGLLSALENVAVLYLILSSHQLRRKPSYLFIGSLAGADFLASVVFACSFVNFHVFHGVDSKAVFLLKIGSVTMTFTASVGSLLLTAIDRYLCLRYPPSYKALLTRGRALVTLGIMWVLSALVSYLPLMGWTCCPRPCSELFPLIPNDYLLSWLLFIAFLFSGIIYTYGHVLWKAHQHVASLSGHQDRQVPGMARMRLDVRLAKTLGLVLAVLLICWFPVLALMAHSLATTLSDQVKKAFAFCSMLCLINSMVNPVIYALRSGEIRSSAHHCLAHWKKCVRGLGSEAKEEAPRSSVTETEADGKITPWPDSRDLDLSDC
# T15 sequence (P28222 whole entry): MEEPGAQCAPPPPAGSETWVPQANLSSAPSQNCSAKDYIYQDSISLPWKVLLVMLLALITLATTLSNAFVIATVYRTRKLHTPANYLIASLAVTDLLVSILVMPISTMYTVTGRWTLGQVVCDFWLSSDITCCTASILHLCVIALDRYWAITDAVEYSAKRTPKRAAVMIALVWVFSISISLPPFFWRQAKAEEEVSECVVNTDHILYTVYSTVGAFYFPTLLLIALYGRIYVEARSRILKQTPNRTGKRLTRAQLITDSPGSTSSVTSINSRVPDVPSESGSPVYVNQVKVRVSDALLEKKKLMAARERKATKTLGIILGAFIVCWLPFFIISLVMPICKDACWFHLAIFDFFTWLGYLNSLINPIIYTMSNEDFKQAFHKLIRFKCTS
# T13 sequence (P35372 whole entry): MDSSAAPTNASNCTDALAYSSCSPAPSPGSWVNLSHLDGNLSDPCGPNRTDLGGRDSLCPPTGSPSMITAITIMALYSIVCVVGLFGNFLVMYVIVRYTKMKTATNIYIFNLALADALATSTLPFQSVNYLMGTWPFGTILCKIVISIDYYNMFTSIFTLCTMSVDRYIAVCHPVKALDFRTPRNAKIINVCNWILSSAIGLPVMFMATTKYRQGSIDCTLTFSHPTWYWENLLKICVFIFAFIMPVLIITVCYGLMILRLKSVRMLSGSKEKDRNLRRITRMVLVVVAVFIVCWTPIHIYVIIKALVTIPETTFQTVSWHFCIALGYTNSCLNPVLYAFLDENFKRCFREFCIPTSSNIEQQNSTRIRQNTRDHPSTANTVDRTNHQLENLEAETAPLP
# T9 sequence (P23975 whole entry): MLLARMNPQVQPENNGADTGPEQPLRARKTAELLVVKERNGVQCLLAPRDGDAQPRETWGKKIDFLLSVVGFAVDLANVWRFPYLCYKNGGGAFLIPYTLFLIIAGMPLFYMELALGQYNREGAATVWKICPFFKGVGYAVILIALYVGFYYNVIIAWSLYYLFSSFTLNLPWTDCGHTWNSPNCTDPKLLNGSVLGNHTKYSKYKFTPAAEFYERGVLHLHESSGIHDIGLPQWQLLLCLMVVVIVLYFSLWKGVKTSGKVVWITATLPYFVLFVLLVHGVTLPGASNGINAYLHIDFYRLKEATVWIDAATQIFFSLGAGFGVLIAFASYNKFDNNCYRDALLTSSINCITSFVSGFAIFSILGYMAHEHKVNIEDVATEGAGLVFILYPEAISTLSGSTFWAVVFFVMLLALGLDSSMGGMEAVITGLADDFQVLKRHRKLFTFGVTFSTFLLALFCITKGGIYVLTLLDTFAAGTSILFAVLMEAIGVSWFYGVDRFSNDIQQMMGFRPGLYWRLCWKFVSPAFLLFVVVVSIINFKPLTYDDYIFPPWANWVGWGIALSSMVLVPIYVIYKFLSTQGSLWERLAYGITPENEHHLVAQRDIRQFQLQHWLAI
# T14 sequence (Q01959 whole entry): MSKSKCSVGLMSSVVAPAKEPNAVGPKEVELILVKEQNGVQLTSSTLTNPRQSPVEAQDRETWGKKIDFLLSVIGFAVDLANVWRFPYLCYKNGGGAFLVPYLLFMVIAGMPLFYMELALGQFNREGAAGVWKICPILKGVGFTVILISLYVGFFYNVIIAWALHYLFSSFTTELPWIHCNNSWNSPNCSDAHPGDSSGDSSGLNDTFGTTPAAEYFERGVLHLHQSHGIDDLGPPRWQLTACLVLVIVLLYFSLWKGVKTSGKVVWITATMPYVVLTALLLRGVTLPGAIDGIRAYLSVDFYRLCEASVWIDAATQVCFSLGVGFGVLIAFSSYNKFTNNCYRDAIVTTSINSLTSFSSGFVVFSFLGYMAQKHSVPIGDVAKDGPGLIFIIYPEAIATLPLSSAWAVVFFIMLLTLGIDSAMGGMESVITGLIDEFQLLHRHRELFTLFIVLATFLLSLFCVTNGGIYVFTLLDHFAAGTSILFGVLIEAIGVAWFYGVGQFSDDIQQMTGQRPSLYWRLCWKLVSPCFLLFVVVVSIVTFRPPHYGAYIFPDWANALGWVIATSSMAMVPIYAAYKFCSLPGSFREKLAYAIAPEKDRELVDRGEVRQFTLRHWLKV
# T2 sequence (Q08499 303-809 limits assumed): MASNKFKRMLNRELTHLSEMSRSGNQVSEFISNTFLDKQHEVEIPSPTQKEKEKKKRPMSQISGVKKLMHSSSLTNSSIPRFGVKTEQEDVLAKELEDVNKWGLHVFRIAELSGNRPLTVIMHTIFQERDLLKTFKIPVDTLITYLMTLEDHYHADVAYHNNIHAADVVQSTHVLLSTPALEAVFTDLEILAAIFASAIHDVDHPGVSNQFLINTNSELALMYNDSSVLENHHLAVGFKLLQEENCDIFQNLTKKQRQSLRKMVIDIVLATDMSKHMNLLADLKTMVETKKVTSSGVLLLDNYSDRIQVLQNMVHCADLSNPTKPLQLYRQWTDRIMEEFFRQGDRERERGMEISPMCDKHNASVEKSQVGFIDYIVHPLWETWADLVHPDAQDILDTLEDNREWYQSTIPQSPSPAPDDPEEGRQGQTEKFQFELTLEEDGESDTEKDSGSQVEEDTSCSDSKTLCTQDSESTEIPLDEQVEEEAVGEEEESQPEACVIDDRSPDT
# T18 sequence (P35354 18-604): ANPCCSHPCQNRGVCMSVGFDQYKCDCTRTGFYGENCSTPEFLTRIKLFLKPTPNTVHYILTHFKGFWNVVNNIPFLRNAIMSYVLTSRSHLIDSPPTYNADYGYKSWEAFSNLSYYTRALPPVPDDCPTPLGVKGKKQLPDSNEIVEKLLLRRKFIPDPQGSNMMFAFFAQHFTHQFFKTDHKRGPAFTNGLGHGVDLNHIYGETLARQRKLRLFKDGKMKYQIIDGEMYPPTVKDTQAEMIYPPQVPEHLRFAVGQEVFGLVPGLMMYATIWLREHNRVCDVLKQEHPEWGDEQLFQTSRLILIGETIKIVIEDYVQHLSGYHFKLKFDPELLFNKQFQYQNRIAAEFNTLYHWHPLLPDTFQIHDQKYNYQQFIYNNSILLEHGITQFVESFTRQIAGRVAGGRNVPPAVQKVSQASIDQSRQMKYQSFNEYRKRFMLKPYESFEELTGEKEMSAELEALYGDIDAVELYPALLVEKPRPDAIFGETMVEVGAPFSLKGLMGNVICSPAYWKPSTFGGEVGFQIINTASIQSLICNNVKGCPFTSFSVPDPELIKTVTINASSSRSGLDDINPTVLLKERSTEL
# T12 sequence (P32238 whole entry): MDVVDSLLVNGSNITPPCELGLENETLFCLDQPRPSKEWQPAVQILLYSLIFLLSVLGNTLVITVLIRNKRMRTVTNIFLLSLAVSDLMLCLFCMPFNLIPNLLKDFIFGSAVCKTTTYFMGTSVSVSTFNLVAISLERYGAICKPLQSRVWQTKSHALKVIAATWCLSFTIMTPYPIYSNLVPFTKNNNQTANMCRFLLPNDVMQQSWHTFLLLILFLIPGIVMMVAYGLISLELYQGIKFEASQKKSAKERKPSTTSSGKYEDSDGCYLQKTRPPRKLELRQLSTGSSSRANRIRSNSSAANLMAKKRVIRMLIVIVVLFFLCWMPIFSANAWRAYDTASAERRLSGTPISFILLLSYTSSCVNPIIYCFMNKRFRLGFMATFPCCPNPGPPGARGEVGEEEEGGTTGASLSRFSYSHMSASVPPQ
# T8 sequence (P22303 32-614): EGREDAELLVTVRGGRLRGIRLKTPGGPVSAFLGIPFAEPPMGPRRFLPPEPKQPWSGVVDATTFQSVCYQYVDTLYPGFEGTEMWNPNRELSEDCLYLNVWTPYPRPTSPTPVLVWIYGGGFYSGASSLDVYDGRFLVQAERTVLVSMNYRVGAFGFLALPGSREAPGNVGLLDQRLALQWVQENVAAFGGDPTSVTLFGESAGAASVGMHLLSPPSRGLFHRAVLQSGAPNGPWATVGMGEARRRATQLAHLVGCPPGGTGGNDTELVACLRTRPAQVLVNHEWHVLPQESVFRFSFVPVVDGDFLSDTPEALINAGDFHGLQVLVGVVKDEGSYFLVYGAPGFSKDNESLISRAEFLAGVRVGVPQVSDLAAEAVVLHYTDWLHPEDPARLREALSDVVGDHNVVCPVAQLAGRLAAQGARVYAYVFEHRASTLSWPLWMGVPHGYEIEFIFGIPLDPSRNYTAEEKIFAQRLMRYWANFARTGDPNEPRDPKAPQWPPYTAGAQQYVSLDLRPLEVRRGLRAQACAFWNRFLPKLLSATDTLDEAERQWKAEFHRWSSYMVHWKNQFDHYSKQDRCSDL
# T1 sequence (P41143 whole entry): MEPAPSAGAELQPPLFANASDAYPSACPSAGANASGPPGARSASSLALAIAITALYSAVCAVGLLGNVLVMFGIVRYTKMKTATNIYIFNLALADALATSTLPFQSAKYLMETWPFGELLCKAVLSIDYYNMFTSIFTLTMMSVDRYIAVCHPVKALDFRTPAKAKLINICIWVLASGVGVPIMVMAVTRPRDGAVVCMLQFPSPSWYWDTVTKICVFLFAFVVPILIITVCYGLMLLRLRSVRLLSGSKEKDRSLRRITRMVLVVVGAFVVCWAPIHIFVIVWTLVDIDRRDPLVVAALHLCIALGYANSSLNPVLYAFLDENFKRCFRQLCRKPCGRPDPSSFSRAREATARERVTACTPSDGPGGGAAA
smiles,measurement,setting,value
CO[C@H]1C[C@@H]2CC[C@@H](C)[C@@](O)(O2)C(=O)C(=O)N2CCCC[C@H]2C(=O)O[C@H]([C@H](C)C[C@@H]2CC[C@@H](OC(=O)NCCOCCOCCOCCOCCOCCOCCOCCOCCC(=O)N3CCc4cc(Cn5nc(-c6ccc7oc(N)nc7c6)c6c(N)ncnc65)ccc4C3)[C@H](OC)C2)C[C@@H](O)[C@H](C)/C=C(\C)[C@@H](O)[C@@H](OC)C(=O)[C@H](C)C[C@H](C)/C=C/C=C/C=C/1C [compound 38],inhibition at 10 µM,[1],11.6%
same,inhibition at 10 µM,[2],-45.6%
same,inhibition at 10 µM,[3],0.6%
same,inhibition at 10 µM,[4],-0.5%
same,inhibition at 10 µM,[5],-9.4%
same,inhibition at 10 µM,[6],-26.1%
same,inhibition at 10 µM,[7],-5.4%
same,inhibition at 10 µM,[8],-15.4%
same,IC50,[9],0.48 nM
same,inhibition at 10 µM,[10],-15.7%
same,inhibition at 10 µM,[11],-3%
same,% Inhibition of Control Values,[12],13.7%
same,% Inhibition of Control Values,[13],3.3%
same,inhibition at 10 µM,[14],-8.5%
same,inhibition at 10 µM,[15],-51.3%
same,inhibition at 10 µM,[16],10.3%
same,inhibition at 10 µM,[17],-1.5%
same,inhibition at 10 µM,[18],13.1%
same,inhibition at 10 µM,[19],-47.2%
same,inhibition at 10 µM,[20],16.8%
same,inhibition at 10 µM,[21],4.4%
same,% Inhibition of Control Values,[22],-45.0%
CO[C@H]1C[C@@H]2CC[C@@H](C)[C@@](O)(O2)C(=O)C(=O)N2CCCC[C@H]2C(=O)O[C@H]([C@H](C)C[C@@H]2CC[C@@H](OC(=O)NCCOCCOCCOCCOCCOCCOCCOCCOCCC(=O)NCCS(=O)(=O)c3ccc(C(=O)N4CCOc5ccc(-c6ccc(N)nc6)cc5C4)c(C)c3F)[C@H](OC)C2)C[C@@H](O)[C@H](C)/C=C(\C)[C@@H](O)[C@@H](OC)C(=O)[C@H](C)C[C@H](C)/C=C/C=C/C=C/1C [compound 40],antitumor activity (tumor regressions) in NCI-H2122 CDX model,[23],Neither
same,KiNativ Kinase Panel Data,[24],-40.3
same,KiNativ Kinase Panel Data,[25],27.4
